# PubChem BioAssay AID2060909 (Molecular Pharmacology Branch, DTP, NCI, 2025)
# Tested on: 362531-283-R-J2-PDC complex spheroid viability
# Test: Anticancer human tumor 362531-283-R-J2-PDC patient-derived colon adenocarcinoma cell line growth inhibition [RAS]
# Conditions: for viability, T/C: stronger effect = lower value
# Text: RAS pathway inhibitors in Combinations in Complex Spheroids
# A high-throughput screen of multi-cell type tumor spheroids was designed to identify active combinations of RAS pathway inhibitors and targeted small molecules. Complex spheroids include a stromal component modeled by human endothelial cells (HUVEC) and fibroblasts modeled by human mesenchymal stem cells (MSCs). The concentration ranges selected for each drug and investigational agent were based upon clinically achievable concentrations if the clinical Cmax of the agent was known.
# Compounds. The drugs and investigational agents: abemaciclib (NSC768073), cobimetinib (NSC768068), divarasib (GDC6063, NSC841802), docetaxel (NSC628503), GDC-1971 (RLY-1971, NSC841576), gemcitabine (NSC613327), inavolisib (NSC800729), ipatasertib (NSC767898), KB-0742 (NSC834161), MRTX-1133 (NSC836407), osimertinib (NSC779217), RMC-4630 (NSC839698), RMC-6236 (NSC851965), RMC-6291 (NSC852671), Ro-3306 (NSC812927), sapanisertib (NSC764658), SN-38 (NSC673596), staurosporine (NSC755774), SY5609 (NSC837396), and tovorafenib (DAY101, NSC766906), were obtained from the National Cancer Institute (NCI) Developmental Therapeutics Program Chemical Repository. The FDA-approved anticancer drug set is available from the NCI Developmental Therapeutics Program. […] The stock solutions were prepared in dimethyl sulfoxide (DMSO, Sigma-Aldrich, St. Louis, MO, cat. D2650) at 800-fold the tested concentration and stored at -70 degrees C prior to their use. All drugs and investigational agents were tested over a range starting from a high concentration at or near the clinical Cmax and decreasing in half-log increments. If the clinical Cmax for an agent had not been determined, the highest concentration tested was 10 microM.
# Cell Culture. All cells were maintained in an incubator at 37 degrees C and 5% CO2 with 95% humidity. The PDC lines were cultured according to standard operating procedures established by the NCI PDMR. All PDCs were thawed and cultured in Matrigel-coated flasks prepared with a working solution of 1X Ham's F-12 nutrient mix, without supplementation (Invitrogen, Waltham, MA, cat. 11765054), 100 U/mL penicillin-streptomycin (Invitrogen, cat. 15140122), and 2.5% Matrigel (Corning Inc., Corning, NY, cat. 354248) for the first three passages. The 362531-283-R-J2-PDC and 782815-120-R-J1-PDC lines were cultured in 6C/Colon 1B media, which includes advanced DMEM/F-12 (Thermo Fisher Scientific, cat. 12634028), 10 mM HEPES (Thermo Fisher Scientific, cat. 15630080), 1X GlutaMAX supplement (Thermo Fisher Scientific, cat. 35050061), 0.1 mg/mL primocin (InvivoGen, San Diego, CA, cat. ant-pm-2), 10% defined fetal bovine serum, heat inactivated (HyClone Laboratories Inc., Logan, UT, cat. SH30070.03HI), 50% L-WRN conditioned media (ATCC, cat. CRL-3276), 1.25 mM N-Acetyl-L-cysteine (Sigma-Aldrich, cat. A9165), 10 mM nicotinamide (Sigma-Aldrich, cat. N0636), 1X B-27 supplement (Thermo Fisher Scientific, cat. 17504044), 1X N-2 supplement (Thermo Fisher Scientific, cat. 17502048), 50 ng/mL human EGF (Thermo Fisher Scientific, cat. PHG0311), and 10 microM Y-27632 dihydrochloride (Tocris Bioscience, cat. 1254). The K12877-001-R-J1-PDC line was cultured in 6I media, which includes all 6C/Colon 1B media plus 10 ng/mL human FGF-10 (PeproTech, cat. 100-26), 1 ng/mL human FGF-2 (PeproTech, cat. 100-18B), 1 µM prostaglandin E2 (Tocris Bioscience, cat. 2296), […] hydrocortisone (Sigma-Aldrich, cat. H4001), and […] bovine insulin (Sigma-Aldrich, cat. I6634). The K86415-001-R-J1-PDC line was cultured in 6D media, which includes all 6C/Colon 1B media components minus the L-WRN conditioned media. The 485176-168-R4-J1-PDC was cultured in PANC media, which includes all 6C/Colon 1B media plus 100 ng/mL human FGF-10 (PeproTech, cat. 100-26), 500 nM SB-431542 (Selleckchem, cat. S1067), and 10 nM gastrin (Tocris Bioscience, cat. 3006). […]
# [1] = curve of first compound, second compound 0.0316 µM
# [2] = curve of first compound, second compound 0.1 µM
# [3] = curve of first compound, second compound 0.316 µM
# [4] = curve of first compound, second compound 1 µM
# [5] = curve of first compound, second compound 3.16 µM
# [6] = curve of first compound, second compound 10 µM
# [7] = second compound 0.0316 µM, first compound 0.0316 µM
# [8] = second compound 0.0316 µM, first compound 0.1 µM
# [9] = second compound 0.0316 µM, first compound 0.316 µM
# [10] = second compound 0.0316 µM, first compound 1 µM
# [11] = second compound 0.0316 µM, first compound 3.16 µM
# [12] = second compound 0.0316 µM, first compound 10 µM
# [13] = second compound 0.1 µM, first compound 0.0316 µM
# [14] = second compound 0.1 µM, first compound 0.1 µM
# [15] = second compound 0.1 µM, first compound 0.316 µM
# [16] = second compound 0.1 µM, first compound 1 µM
# [17] = second compound 0.1 µM, first compound 3.16 µM
# [18] = second compound 0.1 µM, first compound 10 µM
# [19] = second compound 0.316 µM, first compound 0.0316 µM
# [20] = second compound 0.316 µM, first compound 0.1 µM
# [21] = second compound 0.316 µM, first compound 0.316 µM
# [22] = second compound 0.316 µM, first compound 1 µM
# [23] = second compound 0.316 µM, first compound 3.16 µM
# [24] = second compound 0.316 µM, first compound 10 µM
# [25] = second compound 1 µM, first compound 0.0316 µM
# [26] = second compound 1 µM, first compound 0.1 µM
# [27] = second compound 1 µM, first compound 0.316 µM
# [28] = second compound 1 µM, first compound 1 µM
# [29] = second compound 1 µM, first compound 3.16 µM
# [30] = second compound 1 µM, first compound 10 µM
# [31] = second compound 3.16 µM, first compound 0.0316 µM
# [32] = second compound 3.16 µM, first compound 0.1 µM
# [33] = second compound 3.16 µM, first compound 0.316 µM
# [34] = second compound 3.16 µM, first compound 1 µM
# [35] = second compound 3.16 µM, first compound 3.16 µM
# [36] = second compound 3.16 µM, first compound 10 µM
# [37] = second compound 10 µM, first compound 0.0316 µM
# [38] = second compound 10 µM, first compound 0.1 µM
# [39] = second compound 10 µM, first compound 0.316 µM
# [40] = second compound 10 µM, first compound 1 µM
# [41] = second compound 10 µM, first compound 3.16 µM
# [42] = second compound 10 µM, first compound 10 µM
# 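Further: spheroids exposed to the agents for 7 days before readout.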
# 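Wherever viability, T/C is given: luminescence viability as percent of DMSO vehicle control wells.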
smiles,measurement,setting,value
CC(=O)OC12COC1CC(O)C1(C)C(=O)C(O)C3=C(C)C(OC(=O)C(O)C(NC(=O)OC(C)(C)C)c4ccccc4)CC(O)(C(OC(=O)c4ccccc4)C21)C3(C)C (stereo unspecified) + C#Cc1c(F)ccc2cc(O)cc(-c3ncc4c(N5CC6CCC(C5)N6)nc(OCC56CCCN5CC(F)C6)nc4c3F)c12,IC50,[1],169 nM
same,IC50,[2],170 nM
same,IC50,[3],140 nM
same,IC50,[4],103 nM
same,IC50,[5],54.3 nM
same,IC50,[6],< 31.6 nM
same,"viability, T/C",[7],83.2%
same,"viability, T/C",[8],76.4%
same,"viability, T/C",[9],18.4%
same,"viability, T/C",[10],14%
same,"viability, T/C",[11],14.6%
same,"viability, T/C",[12],18.5%
same,"viability, T/C",[13],81.9%
same,"viability, T/C",[14],80.5%
same,"viability, T/C",[15],13.6%
same,"viability, T/C",[16],13.6%
same,"viability, T/C",[17],13.4%
same,"viability, T/C",[18],15.5%
same,"viability, T/C",[19],90.9%
same,"viability, T/C",[20],64.4%
same,"viability, T/C",[21],15.1%
same,"viability, T/C",[22],11.7%
same,"viability, T/C",[23],12.9%
same,"viability, T/C",[24],11.8%
same,"viability, T/C",[25],81.2%
same,"viability, T/C",[26],50.8%
same,"viability, T/C",[27],13.6%
same,"viability, T/C",[28],14.6%
same,"viability, T/C",[29],13.6%
same,"viability, T/C",[30],13.1%
same,"viability, T/C",[31],65.6%
same,"viability, T/C",[32],32.4%
same,"viability, T/C",[33],14.2%
same,"viability, T/C",[34],15%
same,"viability, T/C",[35],13.5%
same,"viability, T/C",[36],13.5%
same,"viability, T/C",[37],32.3%
same,"viability, T/C",[38],15.6%
same,"viability, T/C",[39],13.5%
same,"viability, T/C",[40],15.1%
same,"viability, T/C",[41],13.6%
same,"viability, T/C",[42],12.5%
CC(Nc1ccc2c(c1)OCCn1cc(N3C(=O)OCC3C(F)F)nc1-2)C(N)=O (stereo unspecified) + C#Cc1c(F)ccc2cc(O)cc(-c3ncc4c(N5CC6CCC(C5)N6)nc(OCC56CCCN5CC(F)C6)nc4c3F)c12,IC50,[1],1290 nM
same,IC50,[2],963 nM
same,IC50,[3],847 nM
same,IC50,[4],421 nM
same,IC50,[5],119 nM
same,IC50,[6],42.9 nM
same,"viability, T/C",[7],90.7%
same,"viability, T/C",[8],88.4%
same,"viability, T/C",[9],79%
same,"viability, T/C",[10],55%
same,"viability, T/C",[11],33.7%
same,"viability, T/C",[12],31%
same,"viability, T/C",[13],95%
same,"viability, T/C",[14],77%
same,"viability, T/C",[15],69.9%
same,"viability, T/C",[16],48.6%
same,"viability, T/C",[17],34.5%
same,"viability, T/C",[18],28.8%
same,"viability, T/C",[19],103%
same,"viability, T/C",[20],81.5%
same,"viability, T/C",[21],63.7%
same,"viability, T/C",[22],50.9%
same,"viability, T/C",[23],29.7%
same,"viability, T/C",[24],13.8%
same,"viability, T/C",[25],80.5%
same,"viability, T/C",[26],59.4%
same,"viability, T/C",[27],62.9%
same,"viability, T/C",[28],34.2%
same,"viability, T/C",[29],25.6%
same,"viability, T/C",[30],18%
same,"viability, T/C",[31],62%
same,"viability, T/C",[32],51.9%
same,"viability, T/C",[33],31.4%
same,"viability, T/C",[34],7.66%
same,"viability, T/C",[35],7.58%
same,"viability, T/C",[36],4.5%
same,"viability, T/C",[37],56.1%
same,"viability, T/C",[38],33%
same,"viability, T/C",[39],6.59%
same,"viability, T/C",[40],4.96%
same,"viability, T/C",[41],3.74%
same,"viability, T/C",[42],2.42%
Cc1nc(N2CCC3(CC2)COC(C)C3N)c(CO)nc1Sc1ccnc(N)c1Cl (stereo unspecified),"viability, T/C",compound 0.0316 µM,101% [middle of 4 runs]
same,"viability, T/C",compound 0.1 µM,107% [middle of 4 runs]
same,"viability, T/C",compound 0.316 µM,100% [middle of 4 runs]
same,"viability, T/C",compound 1 µM,88.8% [middle of 4 runs]
same,"viability, T/C",compound 3.16 µM,91.8% [middle of 4 runs]
same,"viability, T/C",compound 10 µM,80% [middle of 4 runs]
same,IC50,curve of compound,> 10000 nM
